Our source for the AC50 values is PubChem BioAssay AID463203 (Broad Institute, 2010).

The experiment deals with Glycogen synthase kinase-3 alpha (Homo sapiens) (UniProt P49840). Kind of experiment: concentration-response blocking of human GSK3A – biochemical, luminescence, cell-free homogeneous, retest, dose response (AID 463203). The note with it: GSK-3 alpha enzyme, ADP-Glo luminescence, 60 min.

Activity calls are given as the source filed them.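 How the source made its calls: active means more than half of replicate measurements showing over 20% loss of kinase signal relative to plate controls; inconclusive means some but at most half of replicates over 20% loss; inactive means no replicate over 20% signal loss.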 Some results are limits rather than exact numbers.

Chain of Glycogen synthase kinase-3 alpha (Homo sapiens) (P49840 whole entry, looked up): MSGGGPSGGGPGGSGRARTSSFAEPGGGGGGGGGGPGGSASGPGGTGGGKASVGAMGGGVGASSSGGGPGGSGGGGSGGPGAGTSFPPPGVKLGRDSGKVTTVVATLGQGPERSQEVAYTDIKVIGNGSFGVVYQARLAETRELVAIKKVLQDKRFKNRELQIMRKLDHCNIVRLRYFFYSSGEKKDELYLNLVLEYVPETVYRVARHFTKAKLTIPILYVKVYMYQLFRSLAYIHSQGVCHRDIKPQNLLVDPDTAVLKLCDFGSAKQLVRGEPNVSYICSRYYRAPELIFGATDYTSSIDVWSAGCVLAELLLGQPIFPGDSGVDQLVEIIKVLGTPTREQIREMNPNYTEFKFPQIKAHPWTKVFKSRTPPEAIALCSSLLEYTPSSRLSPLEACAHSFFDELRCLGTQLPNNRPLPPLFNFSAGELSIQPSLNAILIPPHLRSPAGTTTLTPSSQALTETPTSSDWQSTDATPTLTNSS

Turning to `Cc1csc(NC(=O)C2CC(=O)N(c3ccc4c(c3)OCCO4)C2)n1` (configuration not stated), the AC50 is > 30 µM (inactive).
The figure for `CC(=NCCCn1ccnc1)c1c(O)n(C2CCCCC2)c(=O)[nH]c1=O` is 6.77 µM; for `O=C(N/N=C/c1ccc(Cl)c(Cl)c1)c1ccc2nc[nH]c2c1` it is > 30 µM (inactive); for `COc1cc(/C=N/O)ccc1OCc1ccc([N+](=O)[O-])cc1` it is > 30 µM (inactive).
Turning to `COc1ccc2c(c1)C(SCC(=O)NCc1ccccc1)CC(C)(C)O2` (configuration not stated), the AC50 was > 30 µM (inactive).
For `Cn1c(SCc2cnc(-c3ccccc3)s2)nnc1C1COc2ccccc2O1` (configuration not stated) the value was > 30 µM (inactive).
As for `Nc1nonc1-n1nnc(C(=O)N/N=C/c2ccco2)c1-c1ccccc1`, the concentration at half-maximal activity (AC50) was 18.5 µM.
The figure for `CCN1/C(=C/C(C)=O)Sc2ccc(OC)cc21` is 16.5 µM; for `NC(=O)CSc1nc(C2CC2)nc2sc3c(c12)CCCC3` it is > 30 µM (inactive); for `Oc1[nH]c2ccccc2c1N=Nc1ccccc1` it is 13.9 µM.
For `CC1=C(C(=O)OC(C)C)C(c2cccs2)n2ncnc2N1` (configuration not stated) the value was 28.8 µM; for `COC(=O)c1cn(C(=O)c2ccc(Cl)cc2)c2ccccc12`, > 30 µM (inactive); for `Cc1ccc(-c2noc(CSc3nnnn3-c3ccccc3)n2)cc1`, > 30 µM (inactive).
For `CCCCCCCOC(=O)C1=C(C)Nc2ncnn2C1c1cccs1` (configuration not stated), the AC50 was > 30 µM (inactive).
As to `CCNc1cc(N2CCCC2)ccc1[N+](=O)[O-]`, the AC50 was > 30 µM (inactive).
The figure for `CC1=Nn2c(nc3sc4c(c3c2=O)CCCC4)SC1` is > 30 µM (inactive).
The figure for `Cc1cccc(NC(=O)COC(=O)c2ccccn2)c1` is > 30 µM (inactive).
With `CC(C)OCCCNc1nc2c([nH]1)c(=O)n(C)c(=O)n2C`, the AC50 was > 30 µM (inactive).
For `COc1ccc(C(=O)O/N=C(\N)c2ccccc2)cc1` the value was 25 µM; for `COc1cc(/C(C)=N/NC(=O)c2nnn(-c3nonc3N)c2-c2cccs2)ccc1O`, 1.95 µM.
`COc1ccc(Nc2ccc(S(=O)(=O)N3CCCCC3)cc2[N+](=O)[O-])cc1OC`: the AC50 was > 30 µM (inactive).
Turning to `CCN(CC)C(=O)c1oc2ccc(S(=O)(=O)N3CCCCCC3)cc2c1C`, the AC50 was > 30 µM (inactive).
Turning to `CCOc1ccc(NC(=O)N(C2CCCCC2)C(C)c2cccnc2)cc1` (configuration not stated), the AC50 was > 30 µM (inactive).
The figure for `COc1ccc(S(=O)(=O)N[C@@H](CC(C)C)C(=O)O)cc1` is > 30 µM (inactive).
The figure for `C/C(=N\NC(=O)c1nnn(-c2nonc2N)c1-c1cccs1)c1cccnc1` is 1.33 µM.
For the molecule `Cc1cc(=O)[nH]c2c(C)c(N)ccc12`, the AC50 was > 30 µM (inactive).
Turning to `CCOC(=O)c1cc(-c2ccc(F)cc2)n(CC(=O)NC(C)CC)c1C` (configuration not stated), the AC50 is > 30 µM (inactive).
For `O=C(Nc1cccc(C(=O)N2CCOCC2)c1)c1cccnc1` the value was > 30 µM (inactive); for `CCC(=O)NCCNc1ccc([N+](=O)[O-])cn1`, > 30 µM (inactive).
Take `COc1ccc(-c2csc3nc(C)nc(N4CCC(C)CC4)c23)cc1OC`: the AC50 was > 30 µM (inactive).
On to `COCCNC(=O)Cn1cnc([N+](=O)[O-])n1`, for which the AC50 was > 30 µM (inactive).
For `COc1ccc(C(=O)c2sc(Nc3ccccc3)c(C(=O)Nc3ccc(OC)c(OC)c3)c2N)cc1` the value was > 30 µM (inactive); for `COc1cc(C2CC(=O)Nc3n[nH]c(-c4ccccc4)c32)cc(OC)c1OC` (configuration not stated), > 30 µM (inactive).
For `CCCCOC(=O)C1=C(C)Nc2ncnn2C1c1cc(OC)ccc1OC` (configuration not stated) the value was > 30 µM (inactive); for `Brc1ccc(-c2nc3ncccn3c2NC2CCCCC2)o1`, 2.61 µM; for `COc1ccccc1NC(=O)CSc1ccc2nnc(-c3ccc(C)cc3)n2n1`, 19.2 µM.
For `COC(=O)c1ccc(CSc2nnc(-c3ccncc3)n2Cc2ccccc2)o1` the value was > 30 µM (inactive).
